ChEMBL document CHEMBL4359869, “A new GSH-responsive prodrug of 5-aminolevulinic acid for photodiagnosis and photodynamic therapy of tumors” (Eur J Med Chem, 2019)
One block for each compound: values may come before it. Activity calls are given as the source filed them. The calls are words filed in the database; no cut-off is given here.

Tests used:
[1] = Prodrug activation in human HeLa cells assessed as GSH-mediated PpIX production at 10 to 1000 uM incubated for 4 hrs by fluorescence based assay; assay type: cell-based
[2] = Prodrug activation in human HeLa cells assessed as increase in GSH-mediated PpIX production at 100 uM incubated for 4 hrs by fluorescence imaging analysis; assay type: cell-based
HeLa [3] = test: Cytotoxicity against human HeLa cells assessed as cell viability at 10 to 1000 uM incubated for 4 hrs measured under dark conditions by MTT assay; assay type: cell-based
HeLa [4] = test: Cytotoxicity against human HeLa cells assessed as cell viability at 10 to 1000 uM incubated for 4 hrs followed by LED light array irradiation followed by further incubation for 24 hrs by MTT assay; assay type: functional, cell-based
HCT-116 [5] = test: Cytotoxicity against human HCT116 cells assessed as reduction in cell viability incubated for 4 hrs followed by LED light array irradiation followed by further incubation for 24 hrs by MTT assay; assay type: functional, cell-based
A549 [6] = test: Cytotoxicity against human A549 cells assessed as reduction in cell viability incubated for 4 hrs followed by LED light array irradiation followed by further incubation for 24 hrs by MTT assay; assay type: functional, cell-based
A-375 [7] = test: Cytotoxicity against human A375 cells assessed as reduction in cell viability incubated for 4 hrs followed by LED light array irradiation followed by further incubation for 24 hrs by MTT assay; assay type: functional, cell-based
[8] = Chemical stability of the compound in buffer at 1M at pH 4 by HPLC analysis; assay type: physicochemical
[9] = Chemical stability of the compound in buffer at 1M at pH 7.4 by HPLC analysis; assay type: physicochemical
[10] = Chemical stability of the compound in buffer at 1M at pH 9 by HPLC analysis; assay type: physicochemical
[11] = Prodrug activation in human HeLa cells assessed as increase in GSH-mediated PpIX production at 10 to 300 uM incubated for 4 hrs by fluorescence based assay; assay type: cell-based
[12] = Prodrug activation in human HeLa cells assessed as increase in GSH-mediated PpIX production at 300 uM incubated for 4 hrs by fluorescence based assay; assay type: cell-based
HeLa [13] = test: Photosensitization activity against human HeLa cells assessed as reduction in cell viability incubated for 4 hrs followed by LED light array irradiation followed by further incubation for 24 hrs by MTT assay; assay type: functional, cell-based; settings: light or radiation study
HeLa [14] = test: Photosensitization activity against human HeLa cells assessed as cell viability at 100 uM incubated for 4 hrs followed by LED light array irradiation followed by further incubation for 24 hrs by MTT assay; assay type: functional
HCT-116 [15] = test: Photosensitization activity against human HCT116 cells assessed as cell viability at 100 uM incubated for 4 hrs followed by LED light array irradiation followed by further incubation for 24 hrs by MTT assay; assay type: functional; settings: HCT-116, light or radiation study, read-out: Activity
A549 [16] = test: Photosensitization activity against human A549 cells assessed as cell viability at 100 uM incubated for 4 hrs followed by LED light array irradiation followed by further incubation for 24 hrs by MTT assay; assay type: functional; settings: A549, light or radiation study, read-out: Activity
A-375 [17] = test: Photosensitization activity against human A375 cells assessed as cell viability at 100 uM incubated for 4 hrs followed by LED light array irradiation followed by further incubation for 24 hrs by MTT assay; assay type: functional; settings: A-375, light or radiation study, read-out: Activity
[18] = n-octanol/water partition coefficient, log P of the compound at 1M incubated for 0.5 hrs by HPLC analysis; assay type: physicochemical
[19] = Prodrug activation in human HCT116 cells assessed as increase in GSH-mediated PpIX production at 100 to 300 uM incubated for 4 hrs by fluorescence based assay; assay type: cell-based; settings: hct-116, 4 h
[20] = Prodrug activation in human A549 cells assessed as increase in GSH-mediated PpIX production at 100 to 300 uM incubated for 4 hrs by fluorescence based assay; assay type: cell-based; settings: a549, 4 h
[21] = Prodrug activation in human A375 cells assessed as increase in GSH-mediated PpIX production at 100 to 300 uM incubated for 4 hrs by fluorescence based assay; assay type: cell-based; settings: a-375, 4 h
[22] = Prodrug activation in human HeLa cells assessed as increase in GSH-mediated PpIX production at 100 uM incubated for 4 hrs pretreated for 1 hr with 1 mM intracellular GSH depletor, DEM by fluorescence imaging analysis; assay type: cell-based
[23] = Chemical stability of the compound in buffer at 1 M at pH 4 to 9 measured after 24 hrs by HPLC analysis; assay type: physicochemical; settings: pH 4, 24 h
[24] = Prodrug activation in PBS buffer assessed as GSH-mediated cleaved product C-SA formation at 0.5 mM incubated for 1 hr measured at 37 degC and pH 7.4 in presence of 10 mM GSH by ESI-MS spectrometry; settings: pH 7.4, 1 h, 500 µM
[25] = Prodrug activation in human HeLa cells assessed as increase in GSH-mediated PpIX production at 100 uM incubated for 4 hrs by fluorescence based assay relative to 5-ALA; assay type: cell-based
[26] = Prodrug activation in human HeLa cells assessed as increase in GSH-mediated PpIX production at 100 uM incubated for 4 hrs by fluorescence based assay relative to 5-ALA-OMe; assay type: cell-based
HeLa [27] = test: Cytotoxicity against human HeLa cells assessed as reduction in cell viability at 10 to 300 uM incubated for 4 hrs measured under dark conditions by MTT assay; assay type: cell-based
HeLa [28] = test: Cytotoxicity against human HeLa cells assessed as reduction in cell viability at 300 to 1000 uM incubated for 4 hrs measured under dark conditions by MTT assay; assay type: cell-based
[29] = Prodrug activation in human HCT116 cells assessed as increase in GSH-mediated PpIX production at 100 uM incubated for 4 hrs by fluorescence based assay relative to 5-ALA-OMe; assay type: cell-based; settings: hct-116, 4 h
[30] = Prodrug activation in human A549 cells assessed as increase in GSH-mediated PpIX production at 100 uM incubated for 4 hrs by fluorescence based assay relative to 5-ALA-OMe; assay type: cell-based; settings: a549, 4 h
[31] = Prodrug activation in human A375 cells assessed as increase in GSH-mediated PpIX production at 100 uM incubated for 4 hrs by fluorescence based assay relative to 5-ALA-OMe; assay type: cell-based; settings: a-375, 4 h
[32] = Prodrug activation in human HCT116 cells assessed as increase in GSH-mediated PpIX production at 500 to 1000 uM incubated for 4 hrs by fluorescence based assay; assay type: cell-based; settings: hct-116, 4 h
[33] = Prodrug activation in human A549 cells assessed as increase in GSH-mediated PpIX production at 500 to 1000 uM incubated for 4 hrs by fluorescence based assay; assay type: cell-based; settings: a549, 4 h
[34] = Prodrug activation in human A375 cells assessed as increase in GSH-mediated PpIX production at 500 to 1000 uM incubated for 4 hrs by fluorescence based assay; assay type: cell-based; settings: a-375, 4 h
[35] = Prodrug activation in human HCT116 cells assessed as increase in GSH-mediated PpIX production at 100 uM incubated for 4 hrs by fluorescence based assay relative to 5-ALA; assay type: cell-based; settings: hct-116, 4 h
[36] = Prodrug activation in human A549 cells assessed as increase in GSH-mediated PpIX production at 100 uM incubated for 4 hrs by fluorescence based assay relative to 5-ALA; assay type: cell-based; settings: a549, 4 h
[37] = Prodrug activation in human A375 cells assessed as increase in GSH-mediated PpIX production at 100 uM incubated for 4 hrs by fluorescence based assay relative to 5-ALA; assay type: cell-based; settings: a-375, 4 h
[38] = Prodrug activation in human HeLa cells assessed as increase in GSH-mediated PpIX production at 300 to 1000 uM incubated for 4 hrs by fluorescence based assay; assay type: cell-based
HeLa [39] = test: Potency index, ratio of 5-ALA IC50 to compound IC50 for photosensitization activity against human HeLa cells by MTT assay; assay type: functional
HeLa [40] = test: Potency index, ratio of 5-ALA-OMe IC50 to compound IC50 for photosensitization activity against human HeLa cells by MTT assay; assay type: functional
HCT-116 [41] = test: Cytotoxicity against human HCT116 cells assessed as reduction in cell viability at 500 to 1000 uM incubated for 4 hrs measured under dark conditions by MTT assay; assay type: cell-based; settings: hct-116, 4 h
A549 [42] = test: Cytotoxicity against human A549 cells assessed as reduction in cell viability at 500 to 1000 uM incubated for 4 hrs measured under dark conditions by MTT assay; assay type: cell-based; settings: a549, 4 h
A-375 [43] = test: Cytotoxicity against human A375 cells assessed as reduction in cell viability at 500 to 1000 uM incubated for 4 hrs measured under dark conditions by MTT assay; assay type: cell-based; settings: a-375, 4 h
[44] = Prodrug activation in human HeLa cells assessed as increase in GSH-mediated PpIX production at 1000 uM incubated for 4 hrs by fluorescence based assay; assay type: cell-based

- Drug metabolism [1]: Metabolite_Notdetected
- Drug metabolism [2]: Metabolite_Notdetected
SMILES: COC(=O)CCC(=O)CNC(=O)OCCCCCCOC(=O)NCC(=O)CCC(=O)OC
- Activity (HeLa [3]): Non-Toxic
- inhibition (HeLa [4]): inactive
- inhibition (HCT-116 [5]): inactive
- inhibition (A549 [6]): inactive
- inhibition (A-375 [7]): inactive

- Stability [8]: Stable
- Stability [9]: Unstable
- Stability [10]: Unstable
- Drug metabolism [11]: Metabolite_Detected
- Drug metabolism [12]: Metabolite_Detected
- Drug metabolism [2]: Metabolite_Notdetected
- logP at 0.5 h [18]: -1.52
- Drug metabolism [19]: Metabolite_Detected
- Drug metabolism [20]: Metabolite_Detected
- Drug metabolism [21]: Metabolite_Detected
SMILES: NCC(=O)CCC(=O)O [AMINOLEVULINIC ACID]
- IC50 (HeLa [13]): 230 µM
- Activity (HeLa [14]): inactive
- viability at 100 µM (HCT-116 [15]): > 80%
- viability at 100 µM (A549 [16]): > 80%
- viability at 100 µM (A-375 [17]): 60%
- Activity (HeLa [3]): Non-Toxic

- Drug metabolism [22]: Metabolite_Detected
- Stability [8]: Stable
- Stability [9]: Stable
- Stability [10]: Stable
- Stability [23]: Stable
- Drug metabolism [24]: Metabolite_Detected
- Drug metabolism [11]: Metabolite_Detected
- fold change (FC) [25]: 20
- fold change (FC) [26]: 70
- Drug metabolism [2]: Metabolite_Detected
- fold change (FC) [29]: 28
- fold change (FC) [30]: 84
- fold change (FC) [31]: 43
- Drug metabolism [32]: Metabolite_Detected
- Drug metabolism [33]: Metabolite_Detected
- Drug metabolism [34]: Metabolite_Detected
- fold change (FC) [35]: 3 to 40
- fold change (FC) [36]: 3 to 40
- fold change (FC) [37]: 3 to 40
- logP at 0.5 h [18]: 0.84
- Drug metabolism [38]: Metabolite_Detected
- Drug metabolism [19]: Metabolite_Detected
- Drug metabolism [20]: Metabolite_Detected
- Drug metabolism [21]: Metabolite_Detected
SMILES: COC(=O)CCC(=O)CNC(=O)OCCSSCCOC(=O)NCC(=O)CCC(=O)OC
- Activity (HeLa [27]): Toxic
- Activity (HeLa [28]): Toxic
- IC50 (HeLa [13]): 62 µM
- viability at 100 µM (HeLa [14]; light or radiation study, read-out: Activity): 30%
- viability at 100 µM (HCT-116 [15]): 13%
- viability at 100 µM (A549 [16]): 16%
- viability at 100 µM (A-375 [17]): 14%
- Ratio IC50 (HeLa [39]): 4
- Ratio IC50 (HeLa [40]): 12
- Activity (HCT-116 [41]): Toxic
- Activity (A549 [42]): Toxic
- Activity (A-375 [43]): Toxic

- Stability [8]: Stable
- Stability [9]: Unstable
- Stability [10]: Unstable
- Drug metabolism [11]: Metabolite_Detected
- Drug metabolism [44]: Metabolite_Detected
- Drug metabolism [2]: Metabolite_Notdetected
- logP at 0.5 h [18]: -0.94
- Drug metabolism [19]: Metabolite_Detected
- Drug metabolism [20]: Metabolite_Detected
- Drug metabolism [21]: Metabolite_Detected
SMILES: COC(=O)CCC(=O)CN [METHYL AMINOLEVULINATE]
- IC50 (HeLa [13]): 763 µM
- Activity (HeLa [14]): inactive
- viability at 100 µM (HCT-116 [15]): > 80%
- viability at 100 µM (A549 [16]): > 80%
- viability at 100 µM (A-375 [17]): > 80%
- Activity (HeLa [3]): Non-Toxic
